Measurements published in patent US5401490A, “Markers of tissue hypoxia” (priority 1989, dated 1995).

Legend:
[1] = Blood clearance and whole body elimination of radioactivity; format: in vivo, BALB/C mice; details: for major route of excretion: high kidney radioactivity at short time periods; for blood clearance / excretion of radioactivity from the body: i.v. bolus, ^125 I-labelled
Excerpt: Each data point represents the mean of 6 animals.
Tables 1 and 2 show the percent of injected IAZG and IAZA respectively per gram of wet tissue for selected tissues excised from BALB/C mice bearing EMT-6 tumors. This tumor model is known to have a high hypoxic fraction (0.33) (16). […] Hepatobiliary excretion may play a role in blood clearance as evidenced by elevated liver radioactivity and the appearance of activity in the intestine. Some oxidative or reductive metabolites of the 2-nitroimidazoles may also become bound to liver tissue, as was postulated in an in vivo study with ^14 C-MISO (6). This supposition is supported by the persistence of liver radioactivity at longer time periods. […] At 8 and 24 hours thyroid levels of IAZG are 7.2 and 30.9% of the total body activity and for IAZA they are 7.9 and 33.8% of total body activity.
EXAMPLE 11 TISSUE DISTRIBUTION AND EXCRETION
Tumor propagation of EMT-6 tumors in BALB/C mice was accomplished by subcutaneous injection of a cell suspension (10^5 cells in 0.1 mL) as described previously (10). Tumors reached about 10 mm in diameter (≈0.5 g) at 12 to 14 days, at which time each animal was given a bolus intravenous injection of ^125 I-labelled test drug via the tail vein (40 to 60 kBq in 0.1 mL). At set time periods the animals were asphyxiated with CO2 and exsanguinated via cardiac puncture. Tissues were dissected, weighed wet into vials and counted for ^125 I-activity. Whole-body activity was determined by summation of total activity in tissues and in residual carcass, and blood activity was determined from the blood aliquot, assuming blood to be 6.5% of the total body weight.

EMT-6 tumor tissue = experiment: Imaging study using ^125 I-IAZA; format: in vivo
EMT-6 cells = experiment: Cell uptake / binding to the acid insoluble (macromolecular) fraction of EMT-6 cells; format: cell-based, mouse
Experimental: The binding of IAZG to the acid precipitable fraction of EMT-6 cells in vitro is dependent on the degree of hypoxia as shown in FIG. 4. […] To assess the relative efficiency of uptake of the test compounds, the initial binding rate in terms of pmol/10^6 cells/h was determined at several different concentrations. […] This is the highest binding rate measured to date for any 2-nitroimidazole derivative and is 4 to 8 times greater than MISO.
Initial binding rates were measured (FIG. 8) at four concentrations of IAZA (3, 10, 30 and 100 μM), using normally oxygenated and hypoxic EMT-6 cell cultures as described previously (13). Similar studies at the same concentration of misonidazole were used as controls.
EXAMPLE 8 CELL UPTAKE STUDIES
The uptake of test drugs into EMT-6 cell suspensions, under oxic and hypoxic conditions, was determined as described previously (18, 13). The data were analyzed in terms of drug binding to the macromolecular fraction at various times and at various test drug concentrations (FIG. 4). The initial binding rate, in units of pmol/10^6 cells per hour for each drug, was determined from the binding data (FIG. 5).

Row | SMILES | major route of excretion [1] | blood clearance [1] | excretion of radioactivity from the body [1] | delineation of tumor tissue in imaging (EMT-6 tumor tissue) | binding with time (EMT-6 cells) | oxygen dependence of uptake/binding (EMT-6 cells; 10 μM, various oxygen levels) | initial binding rate, comparison (EMT-6 cells; hypoxic, vs IAZA or MISO) | initial clearance rates, comparison ([1]; blood and whole body, IAZG vs IAZA)
1 | O=[N+]([O-])c1nccn1[C@@H]1O[C@H](CI)[C@@H](O)[C@@H]1O [IAZA, 1-(5-iodo-5-deoxy-β-D-arabino-furanosyl)-2-nitroimidazole] | via the urine | initial rapid blood clearance | rapid excretion of radioactivity from the body | clearly delineated from surrounding tissue |  |  |  | 
2 | O=[N+]([O-])c1nccn1[C@@H]1O[C@H](CI)[C@H](O)[C@H](O)[C@H]1O [IAZG, 1-(6-iodo-6-deoxy-β-D-galactopyranosyl)-2-nitroimidazole] | via the urine | initial rapid blood clearance | rapid excretion of radioactivity from the body |  | appears to increase linearly with time | greatest uptake of IAZG occurs under nitrogen incubation with a decrease in the binding rate as the oxygen concentration to which the cells are exposed is increased | higher binding rate than IAZA or MISO | greater for IAZG than IAZA
